The record followed here is ChEMBL document CHEMBL1139416, “Synthesis of a C-glucosylated cyclopropylamide and evaluation as a glycogen phosphorylase inhibitor” (Bioorg Med Chem Lett, 2008).

Structures are written as SMILES. Active and inactive are the calls of the source. The calls are words filed in the database; no cut-off is given here.

The species named for assay [1] is Oryctolagus cuniculus. Put plainly: Inhibition of rabbit muscle glycogen phosphorylase b at 625 uM.
The species entered for assay [2] is Oryctolagus cuniculus. Put plainly: Inhibition of rabbit muscle glycogen phosphorylase b at 2.5 mM.

Turning to `O=C(NC1([C@@H]2O[C@H](CO)[C@@H](O)[C@H](O)[C@H]2O)CC1)c1ccccc1`, the result in the assay listed under Oryctolagus cuniculus [1] was inactive. This compound also came in with an inhibition in the assay filed under Oryctolagus cuniculus [2] of 16%.
